Target: T1, HDAC6 (Homo sapiens, UniProt Q9UBN7)
T1 sequence (Q9UBN7 1-1215): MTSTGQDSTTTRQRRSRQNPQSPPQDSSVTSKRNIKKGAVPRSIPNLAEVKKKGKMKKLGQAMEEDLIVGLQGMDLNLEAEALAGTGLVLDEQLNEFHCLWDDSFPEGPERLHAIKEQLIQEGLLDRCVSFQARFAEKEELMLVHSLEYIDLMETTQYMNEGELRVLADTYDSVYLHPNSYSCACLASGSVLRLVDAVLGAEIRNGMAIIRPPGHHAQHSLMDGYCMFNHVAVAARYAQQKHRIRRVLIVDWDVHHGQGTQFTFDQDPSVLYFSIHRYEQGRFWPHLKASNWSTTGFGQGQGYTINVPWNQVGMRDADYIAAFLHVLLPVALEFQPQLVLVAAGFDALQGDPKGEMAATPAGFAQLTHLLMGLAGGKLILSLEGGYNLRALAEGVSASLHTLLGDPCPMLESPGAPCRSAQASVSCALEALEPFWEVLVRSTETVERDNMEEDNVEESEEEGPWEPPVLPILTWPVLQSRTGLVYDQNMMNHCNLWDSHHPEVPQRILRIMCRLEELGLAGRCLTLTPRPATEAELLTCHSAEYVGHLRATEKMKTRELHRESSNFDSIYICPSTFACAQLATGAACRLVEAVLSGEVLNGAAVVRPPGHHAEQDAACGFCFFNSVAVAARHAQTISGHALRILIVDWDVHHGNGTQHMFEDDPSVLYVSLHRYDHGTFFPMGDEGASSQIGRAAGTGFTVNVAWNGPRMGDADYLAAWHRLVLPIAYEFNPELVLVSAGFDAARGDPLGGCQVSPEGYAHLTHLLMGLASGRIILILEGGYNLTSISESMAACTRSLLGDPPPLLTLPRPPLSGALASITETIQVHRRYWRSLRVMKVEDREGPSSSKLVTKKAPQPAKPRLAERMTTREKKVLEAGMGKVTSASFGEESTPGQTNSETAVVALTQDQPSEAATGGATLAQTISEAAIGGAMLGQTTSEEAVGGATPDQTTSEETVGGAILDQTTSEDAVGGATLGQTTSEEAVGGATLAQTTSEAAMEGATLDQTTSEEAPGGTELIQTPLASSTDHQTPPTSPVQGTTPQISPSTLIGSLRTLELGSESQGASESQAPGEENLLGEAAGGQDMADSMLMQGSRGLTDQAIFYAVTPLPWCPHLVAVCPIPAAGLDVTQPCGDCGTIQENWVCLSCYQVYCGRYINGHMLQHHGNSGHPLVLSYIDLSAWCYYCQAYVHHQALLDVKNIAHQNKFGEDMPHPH
Test: In vitro cell-based assay: acetylation levels of Alpha-Tubulin by Western Blot in MOLP8 cells
Parameters: endogenous in cells; host or cells: MOLP8
Settings: 18 h, acetyl-alpha-tubulin relative band intensity, ACY-1215 1 μM = 100%
Description: In Vitro Cell-Based Assay
In order to determine the cellular activity of HDAC6 upon treatment with HDAC6 inhibitors, acetylation levels of Alpha-Tubulin (a HDAC6-specific substrate) were measured by Western Blot. For this, MOLP8 cells were seeded in 6-well plates at a cell density of 500.000 cells/well and treated with the selected compounds at 5 and 1 μM for 18 h at 37° C. and 5% CO2 in a humidified tissue culture incubator. Consecutively, cell pellets were collected and whole protein extracts prepared using RIPA buffer (SIGMA) supplemented with 1× protease inhibitors (cOmplete mini, Roche). Protein concentration was determined with Bradford's reagent (Bio-Rad) as per manufacturer's instructions, and 7 μg of total protein were loaded into pre-cast 10% NuPAGE Novex gels (Life Technologies). Gels were run in […] (Life Technologies) and proteins were transferred using the iBlot 2 Dry Blotting System (Life Technologies). Blots were subsequently rinsed in distilled water and stained with Ponceau S solution (SIGMA). Blots were then washed in distilled water to remove Ponceau excess and scanned with the Epson Perfection V600 Photo professional Scanner. After this, blots were de-stained and blocked in 5% milk/PBS-Tween 0.1% for 1 h at room temperature followed by incubation with anti-Acetyl-alpha Tubulin (SIGMA cat. #T7451, 1:10.000 dilution) and anti-Beta-actin (SIGMA, cat. #A5316, 1:2.000 dilution) primary antibodies in 5% milk/PBS-T 0.1%, overnight at 4° C. on a shaking platform. After incubation, blots were washed 3 times for 5 minutes each in PBS-Tween 0.5% and incubated with anti-mouse HRP-conjugated secondary antibody (Jackson Immuno Research, cat. #115-035-068) at 1:8.000 in 5% milk/PBS-Tween 0.1%, 1 h at room temperature on a shaking platform. After 3 washes of 5 minutes each with PBS-Tween 0.5% and 1 wash in PBS 1×, blots were developed with ECL Plus (GE Healthcare) and the chemiluminescent reaction imaged with the G:Box Chemi XRQ (Syngene) imaging system. WB and Ponceau images were analysed with ImageJ software, WB band intensities normalized by either total protein or Beta-actin content and made relative to ACY-1215 1 μM (equivalent to 100%). ACY-1215 is a HDAC6 inhibitor, and is also known as ricolinostat, with chemical name 2-(diphenylamino)-N-[7-(hydroxyamino)-7-oxoheptyl]-5-pyrimidinecarboxamide. Percentage of band intensities was classified as follows: […]

Structure (SMILES)	Cellular activity @1 uM	Cellular activity @5 uM
CCCCN(C(=O)CCOC)c1ccc(-c2cc(-c3noc(C(F)(F)F)n3)ccn2)nc1 [Example 1i, N-Butyl-3-methoxy-N-(4′-(5-(trifluoromethyl)-1,2,4-oxadiazol-3-yl)-[2,2′-bipyridin]-5-yl)propanamide]	− (<50)	+ (50-150)
CN(CCCN1CCC(F)(F)CC1)c1ccc(-c2cc(-c3noc(C(F)(F)F)n3)ccn2)nc1 [Example 1l, N-(3-(4,4-Difluoropiperidin-1-yl)propyl)-N-methyl-4′-(5-(trifluoromethyl)-1,2,4-oxadiazol-3-yl)-[2,2′-bipyridin]-5-amine]	− (<50)	+ (50-150)
CCN(CC)CCCN(C)c1ccc(-c2cc(-c3noc(C(F)(F)F)n3)ccn2)nc1 [Example 1n, N^1,N^1-Diethyl-N^3-methyl-N^3-(4′-(5-(trifluoromethyl)-1,2,4-oxadiazol-3-yl)-2,2′-bipyridin-5-yl)propane-1,3-diamine]	− (<50)	+ (50-150)
CCN(CCCOc1ccc(-c2cc(-c3noc(C(F)(F)F)n3)ccn2)nc1)CCc1ccccc1 [Example 1p, N-Ethyl-N-phenethyl-3-((4′-(5-(trifluoromethyl)-1,2,4-oxadiazol-3-yl)-[2,2′-bipyridin]-5-yl)oxy)propan-1-amine]	− (<50)	++ (150-300)
FC1(F)CCN(CCOc2ccnc(-c3cc(-c4noc(C(F)(F)F)n4)ccn3)c2)CC1 [Example 1s, 3-(4′-(2-(4,4-Difluoropiperidin-1-yl)ethoxy)-[2,2′-bipyridin]-4-yl)-5-(trifluoromethyl)-1,2,4-oxadiazole]	− (<50)	+ (50-150)
CN(C)CCCOc1ccc(-c2cc(-c3noc(C(F)(F)F)n3)ccn2)nc1 [Example 7, N,N-Dimethyl-3-((4′-(5-(trifluoromethyl)-1,2,4-oxadiazol-3-yl)-[2,2′-bipyridin]-5-yl)oxy)propan-1-amine]	− (<50)	+ (50-150)

Other lines, results leading:

Cellular activity @1 uM	Cellular activity @5 uM	Structure (SMILES)
− (<50)	+ (50-150)	CNCCCOc1ccc(-c2cc(-c3noc(C(F)(F)F)n3)ccn2)nc1 [Example 2, N-Methyl-3-((4′-(5-(trifluoromethyl)-1,2,4-oxadiazol-3-yl)-[2,2′-bipyridin]-5-yl)oxy)propan-1-amine]
+ (50-150)	+ (50-150)	FC(F)(F)c1nc(-c2ccnc(-n3ncc4cccnc43)c2)no1 [Example 6, 3-(2-(1H-Pyrazolo[3,4-b]pyridin-1-yl)pyridin-4-yl)-5-(trifluoromethyl)-1,2,4-oxadiazole]
+ (50-150)	++ (150-300)	Cn1nc(-c2cc(-c3noc(C(F)(F)F)n3)ccn2)c2ncccc21 [Example 7a, 3-(2-(1-Methyl-1H-pyrazolo[4,3-b]pyridin-3-yl)pyridin-4-yl)-5-(trifluoromethyl)-1,2,4-oxadiazole]

Reference: patent US12668591B2, “1,2,4-oxadiazole derivatives as histone deacetylase 6 inhibitors” (Oryzon Genomics, S.A., priority 2017, dated 2026)
